Test results as given in patent publication US10807992B2, “Single enantiomer antiparasitic compounds” (priority 2017, dated 2020).

Experiments:
Rhipicephalus sanguineus = experiment: In vitro contact activity against adult ticks (coated vial), R. sanguineus; conditions: for mortality at 0.006 µM: Trial 3, dose 0.006 μM; for mortality at 0.024 µM: Trial 3, dose 0.024 μM; for mortality at 0.098 µM: Trial 3, dose 0.098 μM; for mortality at 0.39 µM: Trial 3, dose 0.39 μM; for mortality at 1.56 µM: Trial 3, dose 1.56 μM; for mortality at 6.25 µM: Trial 3, dose 6.25 μM; for mortality at 25 µM: Trial 3, dose 25 μM; for mortality at 100 µM: Trial 3, dose 100 μM
Protocol: (§1) Rhipicephalus sanguineus, Dermacentor variabilis, Amblyomma americanum, (Ecto Services, Inc., Henderson, N.C.) and Ixodes scapularis (Oklahoma State University, Stillwater, Okla.) aged between 2-4 weeks post molt were held in an environmental chamber at 24° C., 80% humidity with 12-hour light/dark cycles.
(§2) For tick assays, vial caps were pre-drilled with a single hole in the center of each cap to allow air exchange. A filter paper (Whatman Grade 540 2.1 cm) was placed in the lid of each vial. An aliquot from each compound stock was added to an acetone/triton solution to achieve the desired top doses for the study. Serial dilutions were conducted from the top dose (i.e. 100 ppm) to achieve the desired titration range for EC50 and EC90 determination. For R. sanguineus, D. variabilis, and A. americanum, the final DMSO concentration in each test vial was 0.5%. For I. scapularis, compounds were solubilized directly in an acetone/triton solution due to I. scapularis' sensitivity to DMSO. A 459 μL aliquot of each compound formulation was transferred to a vial containing a Whatman Grade 540 2.1 cm filter paper. Vials were immediately placed on an unheated roller unit to allow for an even coating of the vial walls. After vials were coated, 41 μL of each compound formulation was added to the filter paper embedded in each vial cap. Each cap was allowed to dry. The vials were loosely capped and allowed to dry for a minimum of four hours in a chemical fume hood.
(§3) Compounds tested were: the C1 racemate, C1 (R) enantiomer, and the C1 (S) enantiomer. For Trial 3, the C1 (R) enantiomer and the C1 (S) enantiomer were further chiral purified to achieve >99% purity.
(§4) Ten adult ticks were added to each vial and held at 24° C., 80% humidity with 12-hour light/dark cycles. Adult ticks were assessed for percent mortality at various time points between 2 hours and 48 hours post infestation. Ticks were stimulated on a heated roller unit and evaluated. Ticks showing no movement, or very slow and uncoordinated movement were noted as dead.

Ixodes scapularis = experiment: In vitro contact activity against adult ticks (coated vial), I. scapularis; conditions: for mortality at 0.006 µM: Trial 1, dose 0.006 μM; for mortality at 0.024 µM: Trial 1, dose 0.024 μM; for mortality at 0.098 µM: Trial 1, dose 0.098 μM; for mortality at 0.39 µM: Trial 1, dose 0.39 μM; for mortality at 1.56 µM: Trial 1, dose 1.56 μM; for mortality at 6.25 µM: Trial 1, dose 6.25 μM; for mortality at 25 µM: Trial 1, dose 25 μM; for mortality at 100 µM: Trial 1, dose 100 μM
Protocol: as §1, §2, §3, §4

O=C(CC(F)(F)F)N1CC2(C1)OCc1cc(C3=NS[C@@](c4cc(Cl)c(F)c(Cl)c4)(C(F)(F)F)C3)ccc12 [C1 (S) enantiomer, (S)-1-[6-[5-(3,5-dichloro-4-fluoro-phenyl)-5-(trifluoromethyl)-4H-isothiazol-3-yl]spiro[1H-isobenzofuran-3,3′-azetidine]-1′-yl]-3,3,3-trifluoro-propan-1-one]
mortality at 0.006 µM (Rhipicephalus sanguineus; 2 h, Rep1): 0%
mortality at 0.006 µM (Rhipicephalus sanguineus; 2 h, Rep2): 0%
mortality at 0.024 µM (Rhipicephalus sanguineus; 2 h, Rep1): 0%
mortality at 0.024 µM (Rhipicephalus sanguineus; 2 h, Rep2): 0%
mortality at 0.098 µM (Rhipicephalus sanguineus; 2 h, Rep1): 0%
mortality at 0.098 µM (Rhipicephalus sanguineus; 2 h, Rep2): 0%
mortality at 0.39 µM (Rhipicephalus sanguineus; 2 h, Rep1): 0%
mortality at 0.39 µM (Rhipicephalus sanguineus; 2 h, Rep2): 0%
mortality at 1.56 µM (Rhipicephalus sanguineus; 2 h, Rep1): 0%
mortality at 1.56 µM (Rhipicephalus sanguineus; 2 h, Rep2): 0%
mortality at 6.25 µM (Rhipicephalus sanguineus; 2 h, Rep1): 0%
mortality at 6.25 µM (Rhipicephalus sanguineus; 2 h, Rep2): 0%
mortality at 25 µM (Rhipicephalus sanguineus; 2 h, Rep1): 0%
mortality at 25 µM (Rhipicephalus sanguineus; 2 h, Rep2): 0%
mortality at 100 µM (Rhipicephalus sanguineus; 2 h, Rep1): 50%
mortality at 100 µM (Rhipicephalus sanguineus; 2 h, Rep2): 10%
mortality at 0.006 µM (Rhipicephalus sanguineus; 6 h, Rep1): 0%
mortality at 0.006 µM (Rhipicephalus sanguineus; 6 h, Rep2): 0%
mortality at 0.024 µM (Rhipicephalus sanguineus; 6 h, Rep1): 0%
mortality at 0.024 µM (Rhipicephalus sanguineus; 6 h, Rep2): 0%
mortality at 0.098 µM (Rhipicephalus sanguineus; 6 h, Rep1): 0%
mortality at 0.098 µM (Rhipicephalus sanguineus; 6 h, Rep2): 0%
mortality at 0.39 µM (Rhipicephalus sanguineus; 6 h, Rep1): 0%
mortality at 0.39 µM (Rhipicephalus sanguineus; 6 h, Rep2): 0%
mortality at 1.56 µM (Rhipicephalus sanguineus; 6 h, Rep1): 10%
mortality at 1.56 µM (Rhipicephalus sanguineus; 6 h, Rep2): 0%
mortality at 6.25 µM (Rhipicephalus sanguineus; 6 h, Rep1): 80%
mortality at 6.25 µM (Rhipicephalus sanguineus; 6 h, Rep2): 60%
mortality at 25 µM (Rhipicephalus sanguineus; 6 h, Rep1): 90%
mortality at 25 µM (Rhipicephalus sanguineus; 6 h, Rep2): 100%
mortality at 100 µM (Rhipicephalus sanguineus; 6 h, Rep1): 100%
mortality at 100 µM (Rhipicephalus sanguineus; 6 h, Rep2): 100%
mortality at 0.006 µM (Rhipicephalus sanguineus; 12 h, Rep1): 0%
mortality at 0.006 µM (Rhipicephalus sanguineus; 12 h, Rep2): 0%
mortality at 0.024 µM (Rhipicephalus sanguineus; 12 h, Rep1): 0%
mortality at 0.024 µM (Rhipicephalus sanguineus; 12 h, Rep2): 0%
mortality at 0.098 µM (Rhipicephalus sanguineus; 12 h, Rep1): 0%
mortality at 0.098 µM (Rhipicephalus sanguineus; 12 h, Rep2): 0%
mortality at 0.39 µM (Rhipicephalus sanguineus; 12 h, Rep1): 10%
mortality at 0.39 µM (Rhipicephalus sanguineus; 12 h, Rep2): 10%
mortality at 1.56 µM (Rhipicephalus sanguineus; 12 h, Rep1): 40%
mortality at 1.56 µM (Rhipicephalus sanguineus; 12 h, Rep2): 50%
mortality at 6.25 µM (Rhipicephalus sanguineus; 12 h, Rep1): 100%
mortality at 6.25 µM (Rhipicephalus sanguineus; 12 h, Rep2): 100%
mortality at 25 µM (Rhipicephalus sanguineus; 12 h, Rep1): 100%
mortality at 25 µM (Rhipicephalus sanguineus; 12 h, Rep2): 100%
mortality at 100 µM (Rhipicephalus sanguineus; 12 h, Rep1): 100%
mortality at 100 µM (Rhipicephalus sanguineus; 12 h, Rep2): 100%
mortality at 0.006 µM (Ixodes scapularis; 2 h, Rep1): 0%
mortality at 0.006 µM (Ixodes scapularis; 2 h, Rep2): 0%
mortality at 0.024 µM (Ixodes scapularis; 2 h, Rep1): 0%
mortality at 0.024 µM (Ixodes scapularis; 2 h, Rep2): 0%
mortality at 0.098 µM (Ixodes scapularis; 2 h, Rep1): 0%
mortality at 0.098 µM (Ixodes scapularis; 2 h, Rep2): 0%
mortality at 0.39 µM (Ixodes scapularis; 2 h, Rep1): 0%
mortality at 0.39 µM (Ixodes scapularis; 2 h, Rep2): 0%
mortality at 1.56 µM (Ixodes scapularis; 2 h, Rep1): 0%
mortality at 1.56 µM (Ixodes scapularis; 2 h, Rep2): 0%
mortality at 6.25 µM (Ixodes scapularis; 2 h, Rep1): 0%
mortality at 6.25 µM (Ixodes scapularis; 2 h, Rep2): 0%
mortality at 25 µM (Ixodes scapularis; 2 h, Rep1): 0%
mortality at 25 µM (Ixodes scapularis; 2 h, Rep2): 0%
mortality at 100 µM (Ixodes scapularis; 2 h, Rep1): 0%
mortality at 100 µM (Ixodes scapularis; 2 h, Rep2): 0%
mortality at 0.006 µM (Ixodes scapularis; 6 h, Rep1): 0%
mortality at 0.006 µM (Ixodes scapularis; 6 h, Rep2): 0%
mortality at 0.024 µM (Ixodes scapularis; 6 h, Rep1): 0%
mortality at 0.024 µM (Ixodes scapularis; 6 h, Rep2): 0%
mortality at 0.098 µM (Ixodes scapularis; 6 h, Rep1): 0%
mortality at 0.098 µM (Ixodes scapularis; 6 h, Rep2): 0%
mortality at 0.39 µM (Ixodes scapularis; 6 h, Rep1): 0%
mortality at 0.39 µM (Ixodes scapularis; 6 h, Rep2): 0%
mortality at 1.56 µM (Ixodes scapularis; 6 h, Rep1): 0%
mortality at 1.56 µM (Ixodes scapularis; 6 h, Rep2): 0%
mortality at 6.25 µM (Ixodes scapularis; 6 h, Rep1): 0%
mortality at 6.25 µM (Ixodes scapularis; 6 h, Rep2): 0%
mortality at 25 µM (Ixodes scapularis; 6 h, Rep1): 40%
mortality at 25 µM (Ixodes scapularis; 6 h, Rep2): 40%
mortality at 100 µM (Ixodes scapularis; 6 h, Rep1): 100%
mortality at 100 µM (Ixodes scapularis; 6 h, Rep2): 100%
mortality at 0.006 µM (Ixodes scapularis; 12 h, Rep1): 0%
mortality at 0.006 µM (Ixodes scapularis; 12 h, Rep2): 0%
mortality at 0.024 µM (Ixodes scapularis; 12 h, Rep1): 0%
mortality at 0.024 µM (Ixodes scapularis; 12 h, Rep2): 0%
mortality at 0.098 µM (Ixodes scapularis; 12 h, Rep1): 0%
mortality at 0.098 µM (Ixodes scapularis; 12 h, Rep2): 0%
mortality at 0.39 µM (Ixodes scapularis; 12 h, Rep1): 0%
mortality at 0.39 µM (Ixodes scapularis; 12 h, Rep2): 0%
mortality at 1.56 µM (Ixodes scapularis; 12 h, Rep1): 0%
mortality at 1.56 µM (Ixodes scapularis; 12 h, Rep2): 0%
mortality at 6.25 µM (Ixodes scapularis; 12 h, Rep1): 40%
mortality at 6.25 µM (Ixodes scapularis; 12 h, Rep2): 50%
mortality at 25 µM (Ixodes scapularis; 12 h, Rep1): 100%
mortality at 25 µM (Ixodes scapularis; 12 h, Rep2): 90%
mortality at 100 µM (Ixodes scapularis; 12 h, Rep1): 100%
mortality at 100 µM (Ixodes scapularis; 12 h, Rep2): 100%
mortality at 0.006 µM (Ixodes scapularis; 24 h, Rep1): 0%
mortality at 0.006 µM (Ixodes scapularis; 24 h, Rep2): 0%
mortality at 0.024 µM (Ixodes scapularis; 24 h, Rep1): 0%
mortality at 0.024 µM (Ixodes scapularis; 24 h, Rep2): 0%
mortality at 0.098 µM (Ixodes scapularis; 24 h, Rep1): 0%
mortality at 0.098 µM (Ixodes scapularis; 24 h, Rep2): 0%
mortality at 0.39 µM (Ixodes scapularis; 24 h, Rep1): 0%
mortality at 0.39 µM (Ixodes scapularis; 24 h, Rep2): 0%
mortality at 1.56 µM (Ixodes scapularis; 24 h, Rep1): 50%
mortality at 1.56 µM (Ixodes scapularis; 24 h, Rep2): 60%
mortality at 6.25 µM (Ixodes scapularis; 24 h, Rep1): 100%
mortality at 6.25 µM (Ixodes scapularis; 24 h, Rep2): 90%
mortality at 25 µM (Ixodes scapularis; 24 h, Rep1): 100%
mortality at 25 µM (Ixodes scapularis; 24 h, Rep2): 100%
mortality at 100 µM (Ixodes scapularis; 24 h, Rep1): 100%
mortality at 100 µM (Ixodes scapularis; 24 h, Rep2): 100%
mortality at 0.006 µM (Ixodes scapularis; 48 h, Rep1): 0%
mortality at 0.006 µM (Ixodes scapularis; 48 h, Rep2): 10%
mortality at 0.024 µM (Ixodes scapularis; 48 h, Rep1): 0%
mortality at 0.024 µM (Ixodes scapularis; 48 h, Rep2): 0%
mortality at 0.098 µM (Ixodes scapularis; 48 h, Rep1): 10%
mortality at 0.098 µM (Ixodes scapularis; 48 h, Rep2): 10%
mortality at 0.39 µM (Ixodes scapularis; 48 h, Rep1): 40%
mortality at 0.39 µM (Ixodes scapularis; 48 h, Rep2): 40%
mortality at 1.56 µM (Ixodes scapularis; 48 h, Rep1): 90%
mortality at 1.56 µM (Ixodes scapularis; 48 h, Rep2): 100%
mortality at 6.25 µM (Ixodes scapularis; 48 h, Rep1): 100%
mortality at 6.25 µM (Ixodes scapularis; 48 h, Rep2): 100%
mortality at 25 µM (Ixodes scapularis; 48 h, Rep1): 100%
mortality at 25 µM (Ixodes scapularis; 48 h, Rep2): 100%
mortality at 100 µM (Ixodes scapularis; 48 h, Rep1): 100%
mortality at 100 µM (Ixodes scapularis; 48 h, Rep2): 100%
